Reference: article PMC10057977, “Use of In Vivo Imaging and Physiologically-Based Kinetic Modelling to Predict Hepatic Transporter Mediated Drug–Drug Interactions in Rats” (Pharmaceutics, 2023)
Where two headings read alike, the source gives them in different places.

How the values were obtained:
rOatp1b = target: T1, rOatp1b (Rattus norvegicus, UniProt Q9QZX8); format: in vivo; conditions: for Simple Effect Size (95% CI) K^trans: gadoxetate hepatic plasma clearance; for Simple Effect Size (95% CI) K^trans / Simple Effect Size (95% CI) khe: control − treatment, positive = decrease; for Simple Effect Size (95% CI) khe: gadoxetate hepatic uptake
T1 construct: from tissue; host or cells: liver of living male Wistar rats (Charles River Laboratories)
T1 sequence (Q9QZX8 1-687): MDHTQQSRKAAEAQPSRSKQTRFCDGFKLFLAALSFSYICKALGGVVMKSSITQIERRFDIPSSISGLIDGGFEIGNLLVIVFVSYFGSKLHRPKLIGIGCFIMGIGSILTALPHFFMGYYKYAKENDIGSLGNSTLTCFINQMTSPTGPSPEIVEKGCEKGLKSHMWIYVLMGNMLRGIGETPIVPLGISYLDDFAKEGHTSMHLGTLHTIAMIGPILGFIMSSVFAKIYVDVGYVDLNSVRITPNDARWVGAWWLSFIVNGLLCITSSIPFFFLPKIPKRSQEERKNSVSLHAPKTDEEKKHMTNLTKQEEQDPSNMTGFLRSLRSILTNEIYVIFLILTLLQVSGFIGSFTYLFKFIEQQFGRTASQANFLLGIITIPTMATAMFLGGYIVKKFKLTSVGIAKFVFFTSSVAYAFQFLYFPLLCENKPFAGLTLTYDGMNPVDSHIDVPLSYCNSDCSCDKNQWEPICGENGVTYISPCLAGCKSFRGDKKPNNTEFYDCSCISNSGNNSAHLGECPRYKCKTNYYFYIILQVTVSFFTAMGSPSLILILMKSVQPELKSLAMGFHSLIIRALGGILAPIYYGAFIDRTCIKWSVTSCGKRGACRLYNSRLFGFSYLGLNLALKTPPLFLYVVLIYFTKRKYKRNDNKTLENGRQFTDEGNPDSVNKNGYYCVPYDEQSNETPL
Text: (§1) The tracer-kinetic model was developed to enable estimation of rate constants of hepatobiliary efflux from DCE-MRI profiles in individual animals. In this approach, the liver was assumed to consist of two compartments, the extracellular space (e) and the hepatocytes (h). Since water exchanges rapidly between those spaces, the change in relaxation rate was a weighted average (Equation (4)). (4) ΔR1(t)=r1,e·ve·ce(t)+r1,h·vh·ch(t)
(§2) The proportionality constant, r1,τ [L⋅mmol^−1⋅s^−1] , is the relaxivity of the contrast agent for the compartment τ (extracellular space, e or hepatocytes, h) at the respective field strength, while vτ [mL/mL tissue] is the volume fraction of the compartment τ . Previously measured ex vivo r1,tau values for gadoxetate were used in this work, as per. The underlying assumptions of the PBPK and tracer-kinetic models, relating to physiological volumes and perfusion, are consistent, despite different parameterizations according to the purpose of each model. For example, Vliv,extr in the PBPK model is defined as an absolute volume (units = L; sum of liver plasma and interstitial volumes), while in the tracer-kinetic model, ve is a volume fraction (dimensionless), defined as Vliv,extr/Vliver , where Vliver is the total liver volume. While some analogy can be drawn between CLactive […], and CLbiliary and kbh, the interpretations are distinct. For example, the operating concentrations of the PBPK parameters CLactive […], and CLbiliary are the unbound concentrations of gadoxetate in plasma and hepatocytes, while the tracer-kinetic model is parameterized with respect to the total concentration of gadoxetate.
(§3) Since ce(t) is the input to the hepatocytes, and no backflux from hepatocytes to extracellular space is assumed, Equation (5) can be derived. (5) vh·ch(t)=e^−t/Th∗khe·ce(t) where Th is the mean transit time of gadoxetate in the hepatocytes [min] , and * is convolution. The extracellular space is assumed to be in equilibrium with the blood pool and therefore the concentration ce(t) is proportional to the concentration cp(t) in the plasma of the feeding artery, i.e., ce(t) = (1 − E)·cp(t), where E is the extraction fraction of gadoxetate in the liver. Combining this assumption with Equations (4) and (5), and using (1 − E)·khe = E·Fp, with Fp being the apparent plasma flow into the liver [mL/min/mL tissue volume] , gives Equation (6), the operational equation for gadoxetate DCE-MRI in the liver. (6) ΔR1(t)=(1−E)·ve·r1,p·cp(t)+E·Fp·r1,h ·e^−t/Th ∗cp(t)
The rate constants were derived as K^trans = E·Fp, khe = E·Fp/(1 − E), and kbh = vh/Th, with a literature value for vh. The plasma concentrations cp(t) were not reliably measured in small animals due to the small diameter of the main vessels compared to the resolution of the measurement. […] Therefore, the source term cp(t) was derived from a two-compartment pharmacokinetic model for gadoxetate (see Supplementary Material, Section S5), and a step function as input in the blood compartment. The parameters kbh and khe were fitted to the liver data using a model implementation in Python. For each rat considered in these studies, the rate constants K^trans, khe, and kbh were calculated, in both control and inhibitory phases. […] Statistical significance was assessed through a two-sided paired t-test, with p < 0.05 considered significant.

rMrp2 [1] = target: T2, rMrp2 (Rattus norvegicus, UniProt Q63120); design: method as in PMID 16258024, PMID 29891589, PMID 21415249, PMID 11883641, PMID 15550721; conditions: in vitro; NI = reported not to inhibit the transporter; cited from earlier work
MRP2 = conditions: in vitro; bracket not explained in the table; ref 30,43-55 and in-house data from Merck & Co.; cited from earlier work
[2] = unbound concentration ratio between hepatocyte and plasma; ref supplement [39] rifampicin, [40] asunaprevir, [41] bosentan, ciclosporin, ketoconazole; cited from earlier work
rMrp2 [3] = target: T2, rMrp2; format: in vivo; design: from tissue; host or cells: liver of living male Wistar rats (Charles River Laboratories); conditions: for Simple Effect Size (95% CI) kbh: gadoxetate biliary efflux, control − treatment, positive = decrease, site G2
Text: as §1, §2, §3
The rate constants were derived as K^trans = E·Fp, khe = E·Fp/(1 − E), and kbh = vh/Th, with a literature value for vh. The plasma concentrations cp(t) were not reliably measured in small animals due to the small diameter of the main vessels compared to the resolution of the measurement. […] Therefore, the source term cp(t) was derived from a two-compartment pharmacokinetic model for gadoxetate (see Supplementary Material, Section S5), and a step function as input in the blood compartment. The parameters kbh and khe were fitted to the liver data using a model implementation in Python. For each rat considered in these studies, the rate constants K^trans, khe, and kbh were calculated, in both control and inhibitory phases. The rate constants of the control and inhibitory phases were compared via calculation of simple (unstandardized) effect sizes (i.e., simple effect size = μcontrol − μtreatment, where μ is the mean average of all subjects) at the 95% confidence level. Statistical significance was assessed through a two-sided paired t-test, with p < 0.05 considered significant.

NTCP = tested on: NTCP; design: method as in earlier work; conditions: in vitro; ref 30,43-55 and in-house data from Merck & Co.; cited from earlier work
[4] = pioglitazone 0.4 mg/kg iv, site E

T2 sequence (Q63120 whole entry): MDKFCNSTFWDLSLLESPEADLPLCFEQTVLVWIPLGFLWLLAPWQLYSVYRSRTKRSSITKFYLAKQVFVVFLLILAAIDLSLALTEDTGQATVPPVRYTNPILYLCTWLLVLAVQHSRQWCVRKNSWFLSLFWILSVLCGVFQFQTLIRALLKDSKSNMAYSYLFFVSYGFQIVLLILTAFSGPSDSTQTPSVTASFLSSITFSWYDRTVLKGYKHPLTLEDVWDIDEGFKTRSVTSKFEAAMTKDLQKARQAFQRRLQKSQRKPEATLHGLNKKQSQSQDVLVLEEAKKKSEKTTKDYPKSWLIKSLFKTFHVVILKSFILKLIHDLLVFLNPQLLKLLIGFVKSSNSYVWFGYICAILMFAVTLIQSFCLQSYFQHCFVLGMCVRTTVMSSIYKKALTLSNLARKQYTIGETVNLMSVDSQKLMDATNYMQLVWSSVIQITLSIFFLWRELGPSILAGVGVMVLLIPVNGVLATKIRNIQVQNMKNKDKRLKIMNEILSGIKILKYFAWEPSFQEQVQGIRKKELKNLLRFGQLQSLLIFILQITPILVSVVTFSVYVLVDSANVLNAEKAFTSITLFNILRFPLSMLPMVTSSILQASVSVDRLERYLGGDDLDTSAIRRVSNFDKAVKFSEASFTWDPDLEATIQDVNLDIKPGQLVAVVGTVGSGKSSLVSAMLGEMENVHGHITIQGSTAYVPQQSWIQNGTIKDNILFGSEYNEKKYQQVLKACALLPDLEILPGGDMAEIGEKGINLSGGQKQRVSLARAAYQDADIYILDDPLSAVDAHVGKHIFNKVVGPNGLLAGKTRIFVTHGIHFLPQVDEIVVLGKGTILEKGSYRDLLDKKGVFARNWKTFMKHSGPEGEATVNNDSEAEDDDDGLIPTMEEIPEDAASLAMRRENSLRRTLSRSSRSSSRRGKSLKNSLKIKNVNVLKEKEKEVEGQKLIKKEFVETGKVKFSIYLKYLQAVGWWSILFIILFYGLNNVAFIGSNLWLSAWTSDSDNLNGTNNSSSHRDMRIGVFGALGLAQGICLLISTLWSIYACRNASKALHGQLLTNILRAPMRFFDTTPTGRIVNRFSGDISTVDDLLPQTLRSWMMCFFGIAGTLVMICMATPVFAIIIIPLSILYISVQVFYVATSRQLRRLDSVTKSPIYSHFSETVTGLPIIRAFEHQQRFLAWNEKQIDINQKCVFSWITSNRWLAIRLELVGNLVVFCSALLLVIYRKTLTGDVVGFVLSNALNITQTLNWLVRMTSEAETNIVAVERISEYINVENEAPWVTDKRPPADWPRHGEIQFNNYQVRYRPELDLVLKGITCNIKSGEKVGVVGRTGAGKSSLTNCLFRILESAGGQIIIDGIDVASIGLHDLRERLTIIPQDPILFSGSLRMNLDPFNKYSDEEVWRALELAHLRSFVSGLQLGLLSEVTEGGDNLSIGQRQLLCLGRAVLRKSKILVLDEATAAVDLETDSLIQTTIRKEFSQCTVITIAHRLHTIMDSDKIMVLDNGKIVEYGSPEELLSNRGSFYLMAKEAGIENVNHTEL

C=C[C@@H]1C[C@]1(NC(=O)[C@@H]1C[C@@H](Oc2ncc(OC)c3ccc(Cl)cc23)CN1C(=O)[C@@H](NC(=O)OC(C)(C)C)C(C)(C)C)C(=O)NS(=O)(=O)C1CC1 [Asunaprevir]
Simple Effect Size (95% CI) K^trans (rOatp1b; asunaprevir 5 mg/kg iv, site E): 0.24 (−0.01, 0.48) mL/min/mL liver | Simple Effect Size (95% CI) khe (rOatp1b; asunaprevir 5 mg/kg iv, site E): 2.34 (−0.92, 5.60) mL/min/mL liver | IC50 (rMrp2 [1]): 11 µM | IC50 (MRP2): 4 µM | Kpuu [2]: 11.5 | decrease in gadoxetate kbh (rMrp2 [3]; rat, asunaprevir 5 mg/kg iv): 31%

COc1ccccc1Oc1c(NS(=O)(=O)c2ccc(C(C)(C)C)cc2)nc(-c2ncccn2)nc1OCCO [Bosentan]
Simple Effect Size (95% CI) K^trans (rOatp1b; bosentan 2 mg/kg iv, site G1, subjects 3, 4, 6 excluded): 0.28 (−0.32, 0.88) mL/min/mL liver | Simple Effect Size (95% CI) K^trans (rOatp1b; bosentan 4–6 mg/kg iv, site G2): 0.07 (−0.12, 0.26) mL/min/mL liver | Simple Effect Size (95% CI) khe (rOatp1b; bosentan 2 mg/kg iv, site G1, subjects 3, 4, 6 excluded, khe physiologically implausible): −54.22 (−197.97, 89.53) mL/min/mL liver | Simple Effect Size (95% CI) khe (rOatp1b; bosentan 4–6 mg/kg iv, site G2): 1.07 (−1.13, 3.26) mL/min/mL liver | IC50 (NTCP): 18 µM | IC50 (MRP2): > 100 µM | Kpuu [2]: 3 | Simple Effect Size (95% CI) kbh (rMrp2 [3]; bosentan 4–6 mg/kg iv): 0.02 (−0.02, 0.07) mL/min/mL liver

CCc1ccc(CCOc2ccc(CC3SC(=O)NC3=O)cc2)nc1 (centres unmarked) [Pioglitazone]
Simple Effect Size (95% CI) K^trans (rOatp1b; [4]): 0.13 (−0.05, 0.32) mL/min/mL liver | Simple Effect Size (95% CI) khe (rOatp1b; [4]): 1.21 (−0.10, 2.51) mL/min/mL liver | IC50 (MRP2): > 133 µM | decrease in gadoxetate kbh (rMrp2 [3]; rat, pioglitazone 0.4 mg/kg iv): 19%

CO[C@H]1/C=C/O[C@@]2(C)Oc3c(C)c(O)c4c(O)c(c(/C=N/N5CCN(C)CC5)c(O)c4c3C2=O)NC(=O)/C(C)=C\C=C\[C@H](C)[C@H](O)[C@@H](C)[C@@H](O)[C@@H](C)[C@H](OC(C)=O)[C@@H]1C [Rifampicin]
Simple Effect Size (95% CI) khe (rOatp1b; * p < 0.05, rifampicin 2 mg/kg iv, site G2): 7.20 mL/min/mL liver | IC50 (rMrp2 [1]): 20 to 53 µM | IC50 (NTCP): 277 µM | IC50 (MRP2): 55 µM | Ki (MRP2): 24.3 µM | Simple Effect Size (95% CI) kbh (rMrp2 [3]; ** p < 0.01, rifampicin 2 mg/kg iv): 0.07 mL/min/mL liver

CCOc1ccc(C[C@@H](CN(CCN(CC(=O)[O-])CC(=O)[O-])CC(=O)[O-])N(CC(=O)[O-])CC(=O)[O-])cc1.[Gd+3].[H+].[H+] [gadoxetate, Gadoxetate]
hepatic extraction ratio (E) (rOatp1b; rat, in vivo): > 0.95 | khe, new value in unified units (rOatp1b; rat, in vivo): 11.1 mL/min | khe, original value (rOatp1b; rat, in vivo): 1.31 mL/ min/ mL tissue volume | kbh, new value in unified units (rMrp2 [3]; rat, in vivo): 1.19 mL/min | kbh, original value (rMrp2 [3]; rat, in vivo): 0.14 mL/ min/ mL tissue volume
